Activity calls are given as the source filed them.
How the values were obtained:
fMet-Leu-Phe receptor = biological target: T1, fMet-Leu-Phe receptor (Homo sapiens, UniProt P21462); assay: formyl peptide receptor binders – dose response (AID 519); format: functional
T1 sequence (P21462 whole entry): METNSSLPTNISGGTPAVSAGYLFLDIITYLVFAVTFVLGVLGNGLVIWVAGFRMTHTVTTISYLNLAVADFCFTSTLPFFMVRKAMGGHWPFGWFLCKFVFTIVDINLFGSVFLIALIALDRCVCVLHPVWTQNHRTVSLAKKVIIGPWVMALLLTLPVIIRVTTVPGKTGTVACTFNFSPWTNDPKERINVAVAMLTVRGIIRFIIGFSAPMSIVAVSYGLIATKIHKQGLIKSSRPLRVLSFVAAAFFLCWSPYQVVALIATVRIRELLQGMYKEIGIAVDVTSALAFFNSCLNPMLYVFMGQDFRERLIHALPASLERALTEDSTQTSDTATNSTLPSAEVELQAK

cells [1] = format: functional, cell-based
[2] = biological target: T2, Nuclear receptor subfamily 0 group B member 1 (Homo sapiens, UniProt P51843); format: functional, cell-based;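 also: HEK293T cells transfected with SF-1 and DAX-1 plus StAR promoter luciferase reporter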
T2 sequence (P51843 whole entry): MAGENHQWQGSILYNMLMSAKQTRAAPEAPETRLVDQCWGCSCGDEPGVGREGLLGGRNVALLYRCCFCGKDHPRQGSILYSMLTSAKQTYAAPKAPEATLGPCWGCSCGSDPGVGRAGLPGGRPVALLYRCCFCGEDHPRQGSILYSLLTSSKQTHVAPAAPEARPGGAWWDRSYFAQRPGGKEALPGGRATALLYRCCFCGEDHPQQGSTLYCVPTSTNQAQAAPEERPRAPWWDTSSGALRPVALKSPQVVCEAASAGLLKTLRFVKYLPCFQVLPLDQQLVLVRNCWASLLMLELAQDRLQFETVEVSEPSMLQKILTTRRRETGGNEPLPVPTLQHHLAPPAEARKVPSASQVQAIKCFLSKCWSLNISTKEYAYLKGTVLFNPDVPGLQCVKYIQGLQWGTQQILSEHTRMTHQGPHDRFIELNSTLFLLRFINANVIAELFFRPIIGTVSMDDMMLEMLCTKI

[3] = biological target: T3, DNA repair protein RAD52 homolog (Homo sapiens, UniProt P43351); format: functional, biochemical
T3 sequence (P43351 whole entry): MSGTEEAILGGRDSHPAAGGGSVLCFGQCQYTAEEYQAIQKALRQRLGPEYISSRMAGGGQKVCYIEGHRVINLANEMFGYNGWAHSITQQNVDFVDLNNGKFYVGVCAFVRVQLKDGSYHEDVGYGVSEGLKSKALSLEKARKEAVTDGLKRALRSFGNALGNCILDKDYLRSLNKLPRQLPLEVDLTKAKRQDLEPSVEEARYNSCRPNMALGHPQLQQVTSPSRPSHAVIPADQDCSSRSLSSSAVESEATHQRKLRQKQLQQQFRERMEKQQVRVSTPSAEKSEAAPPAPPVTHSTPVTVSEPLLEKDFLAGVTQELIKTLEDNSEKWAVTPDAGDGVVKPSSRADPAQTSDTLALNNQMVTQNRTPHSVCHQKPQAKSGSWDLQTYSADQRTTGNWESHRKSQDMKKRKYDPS

[4] = biological target: Luciferin 4-monooxygenase (Photinus pyralis, UniProt P08659); assay: inhibition of purified Photinus pyralis luciferase – biochemical, luminescence, dose response (AID 1891)
[5] = Luminescence Cell-Based Dose Confirmation HTS to Identify Inhibitors of Platelet Dense Granule Release. [Related pubchem assays: 1663 (Primary HTS), 1678 (Summary of Project)]; format: functional
Major prion protein = Major prion protein (Homo sapiens, UniProt P04156); format: functional, cell-based
cells [6] = assay: cells
[7] = biological target: NAD-dependent protein deacylase sirtuin-5, mitochondrial (Homo sapiens, UniProt Q9NXA8); assay: sirtuin-5 deacylation blockers, concentration series – biochemical, fluorescence imaging, cherry-pick, set 5, dose response (AID 720591);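 also: desuccinylation of succinyl peptide AMC substrate read as fluorescence after trypsin release; potency of inhibitors that lower fluorescence and may act on trypsin instead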
Beta-lactamase [8] = biological target: Beta-lactamase (Salmonella choleraesuis (strain SC-B67), UniProt Q5J463); assay: Epi-absorbance-based counterscreen for selective VIM-2 inhibitors: dose response biochemical high throughput screening assay to identify inhibitors of TEM-1 serine-beta-lactamase.
Beta-lactamase [9] = biological target: T4, Beta-lactamase (Pseudomonas aeruginosa, UniProt Q79MP6); assay: inhibition of IMP-1 beta-lactamase activity – biochemical, epi-absorbance, selectivity assay for VIM-2 inhibitor project, dose response (AID 1920)
Beta-lactamase [10] = biological target: T4, Beta-lactamase; assay: […] counterscreen for selective VIM-2 inhibitors: dose response biochemical high throughput screening assay to identify inhibitors of IMP-1 metallo-beta-lactamase.
Cytochrome P450 2C19 = Cytochrome P450 2C19 (Homo sapiens, UniProt P33261); assay: Cytochrome panel assay with activity outcomes. Panel member name: p450-cyp2c19 Compounds with AC50 equal or less than 10 uM are considered active; format: functional; conditions: read-out: AC50
Cytochrome P450 1A2 = biological target: T5, Cytochrome P450 1A2 (Homo sapiens, UniProt P05177);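 also: PubChem cytochrome P450 panel assay, CYP1A2 panel member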
T5 sequence (P05177 whole entry): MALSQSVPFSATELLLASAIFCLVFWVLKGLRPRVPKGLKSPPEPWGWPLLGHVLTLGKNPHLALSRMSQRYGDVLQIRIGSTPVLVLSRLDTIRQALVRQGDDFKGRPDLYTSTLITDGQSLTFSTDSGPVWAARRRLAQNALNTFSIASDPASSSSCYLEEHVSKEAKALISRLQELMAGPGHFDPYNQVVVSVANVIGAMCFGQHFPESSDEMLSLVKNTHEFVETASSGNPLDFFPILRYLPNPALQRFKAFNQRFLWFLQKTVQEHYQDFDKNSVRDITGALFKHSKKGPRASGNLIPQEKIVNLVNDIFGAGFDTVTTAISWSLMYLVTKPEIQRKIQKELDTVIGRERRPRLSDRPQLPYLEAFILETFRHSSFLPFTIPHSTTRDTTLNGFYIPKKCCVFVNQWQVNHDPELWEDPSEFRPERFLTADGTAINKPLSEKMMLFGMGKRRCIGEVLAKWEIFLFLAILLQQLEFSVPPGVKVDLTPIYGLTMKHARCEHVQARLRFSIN

Cytochrome P450 3A4 = Cytochrome P450 3A4 (Homo sapiens, UniProt P08684);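 also: CYP3A4 tested as one member of a cytochrome P450 panel screen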
[11] = reduction of Shn3 3'UTR-driven luciferase in osteoblasts – cell-based, Clone20 osteoblasts, firefly luciferase, cherry-picked, dose response (AID 624132); format: functional;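 also: firefly luciferase luminescence from reporter carrying the Shn3 3'UTR in osteoblasts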
[12] = loss of viability in HepG2 cells – cell-based, CellTiter-Glo, cherry-picked, cytotoxicity control for Shn3 inhibitor project, dose response (AID 624134); format: functional
[13] = non-specific 3'UTR reporter inhibition in Clone20-Shn3RL – cell-based, Renilla luciferase, cherry-picked, counter-screen for Shn3 inhibitor project, dose response (AID 624133); format: functional
HEK293 [14] = assay: cells; conditions: Homo sapiens
HEK293 [15] = assay: cells; conditions: Homo sapiens; remark: listed apart in the source
cells [16] = format: functional, cell-based; remark: listed apart in the source
[17] = biological target: T6, Trace amine-associated receptor 1 (Homo sapiens, UniProt Q96RJ0); assay: Fluorescence-based cell-based high throughput dose response assay to identify agonists of the human trace amine associated receptor 1 (TAAR1).; format: functional
T6 sequence (Q96RJ0 whole entry): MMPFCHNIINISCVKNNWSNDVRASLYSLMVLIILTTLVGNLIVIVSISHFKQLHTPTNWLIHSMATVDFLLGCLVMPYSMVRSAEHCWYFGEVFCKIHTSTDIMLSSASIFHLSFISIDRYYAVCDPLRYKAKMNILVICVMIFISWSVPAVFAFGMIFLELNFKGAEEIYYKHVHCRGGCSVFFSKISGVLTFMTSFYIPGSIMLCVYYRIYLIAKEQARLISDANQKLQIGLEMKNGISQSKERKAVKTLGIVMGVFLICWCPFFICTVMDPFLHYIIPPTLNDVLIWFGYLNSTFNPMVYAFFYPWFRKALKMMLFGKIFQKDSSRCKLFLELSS

[18] = biological target: T6, Trace amine-associated receptor 1; assay: Counterscreen for agonists of the human trace amine associated receptor 1 (hTAAR1): Fluorescence-based cell-based high throughput dose response assay to identify hTAAR1 agonist that also desensitize TAAR1 receptor response.; format: functional
cells [19] = format: functional, cell-based; remark: listed apart in the source
H9c2 = assay: cells; format: functional, cell-based; conditions: Rattus norvegicus, H9c2, Myocardium;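 also: confirmatory concentration-response retest of ultra-high-throughput screening hits for modulation of myocardial damage; cell death induced by hydrogen peroxide oxidative stress; compound pretreatment for 60 min then peroxide exposure for 2 h; potency is for protecting the cells against peroxide damage rather than for killing them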
[20] = A549 cell cytotoxicity, dose response, cytotoxicity control, plate reader, cherry-pick, antagonist series (AID 743412); format: functional, cell-based
[21] = toxicity toward HepG2 liver cells – cell-based, plate reader, cherry-pick, antagonist series, cytotoxicity control, dose response (AID 743416); format: functional
[22] = blockers of bursicon-stimulated LGR2 cAMP reporter – cell-based, HEK293, CRE-luciferase reporter, cherry pick, set 2, dose response (AID 743343); format: functional;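 also: transfected cells were stimulated with diluted bursicon conditioned medium after compound addition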
[23] = biological target: T7, Disintegrin and metalloproteinase domain-containing protein 17 (Homo sapiens, UniProt P78536); assay: exosite inhibitors of ADAM17, dose response, biochemical (AID 743260)
[24] = blockade of melanocortin 4 receptor signaling – cell-based, plate reader, cherry pick, counter-screen for LGR2 antagonist project, dose response (AID 743444); format: functional;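 also: transfected HEK 293 cells stimulated with alpha-MSH peptide; potency of inhibitors of the alpha-MSH evoked signal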
[25] = inhibition of ADAM10 peptide cleavage – biochemical, FRET peptide substrate, recombinant human ADAM10, selectivity assay for ADAM17 exosite inhibitor project, dose response (AID 743259);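 also: ADAM10 enzyme cleaving a FRET peptide substrate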
[26] = viability loss in HEK293 cells – cell-based, plate reader, cherry-picked samples, cytotoxicity control, dose response (AID 743446); format: functional
[27] = viability of PTEN-deleted HCT116 cells – cell-based, HCT116 PTEN knockout, dose response (AID 1047); format: functional;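 also: HCT116 colon tumor cells with PTEN knocked out; cells exposed to compound for 60 hours before readout; potency for loss of cell viability measured by luminescence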
[28] = viability of HCT116 lacking mutant beta-catenin – cell-based, human colon tumor, dose response (AID 1045); format: functional;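 also: HCT116 colon tumor cells with beta catenin knocked out; cells exposed to compound for 60 hours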
[29] = biological target: T7, Disintegrin and metalloproteinase domain-containing protein 17; assay: inhibition of ADAM17 substrate cleavage – biochemical, quenched FRET substrate, counter-screen for ADAM10 exosite inhibitor project, dose response (AID 743253)
[30] = Luminescence Cell-Based Dose Retest to Confirm Inhibitors of Cancer Stem Cells. [Related pubchem assays (depositor defined):AID2717, AID2721]; format: functional; conditions: Homo sapiens

C=CCN1C(=O)C2(C(C(=O)c3ccc4c(c3)OCCO4)=C(O)C(=O)N2CCCOC)c2ccccc21 (stereo unspecified)
Ki (fMet-Leu-Phe receptor): > 66.7 µM (inactive)

Cc1cccc(NC(=O)c2ccc3c(=O)n4c(nc3c2)CCCCC4)n1
IC50 (cells [1]): > 67.5 µM (inactive) | IC50 [2]: > 0.834 µM (active)

CN1Cc2c(N3CCOCC3)nc3sc(C(=O)c4ccccc4)c(N)c3c2CC1(C)C
AC50 [3]: 32.1 µM (active)

COC(=O)CSc1nc(COc2ccccc2)nc2ccccc12
EC50 [4]: > 112 µM (not active) | EC50 [5]: > 112 µM (not active) | IC50 (Major prion protein): 8.48 µM (active) | IC50 (cells [6]): > 138 µM (inactive)

C/C(NCc1cccnc1)=C1/C(=O)NC(=O)N(c2ccc(C)cc2)C1=O
IC50 (Major prion protein): 10.2 µM (inactive) | IC50 (cells [6]): > 138 µM (inactive)

OC(CNCc1ccccc1)COc1ccccc1 (stereo unspecified)
AC50 [7]: > 30 µM (inactive)

CC(C)(C)C(=O)Nc1nnc(SCC(=O)NCc2cccs2)s1
IC50 (Beta-lactamase [8]): > 59.6 µM (inactive) | IC50 (Beta-lactamase [9]): > 59.6 µM (inactive) | IC50 (Beta-lactamase [10]): > 59.6 µM (inactive) | AC50 (Cytochrome P450 2C19): 3.16 µM (inconclusive) | AC50 (Cytochrome P450 1A2): 22.4 µM (inconclusive) | AC50 (Cytochrome P450 3A4): 25.1 µM (inconclusive)

CN(C)CCCN=c1cc(-c2ccccc2)oc2ccc(Cl)cc12
AC50 [3]: 4.38 µM (active)

Cc1ccsc1C1C2=C(O)CC(C)(C)CC2=Nc2ncnn21 (stereo unspecified)
Ki (fMet-Leu-Phe receptor): 12.5 µM (active)

CN(C)CCNC(=O)c1ccc(Cl)c2cc3ccccc3nc12
AC50 [11]: 9.85 µM (active) | AC50 [12]: 4.37 µM (active) | AC50 [13]: 24 µM (active) | AC50 [3]: 0.846 µM (active) | EC50 (HEK293 [14]): > 2.21 µM (active) | EC50 (HEK293 [15]): > 59.7 µM (inactive)

c1ccc(C2CNCCc3ccccc32)cc1 (stereo unspecified)
IC50 (cells [16]): > 29.9 µM (inactive) | EC50 [17]: 1.41 µM (active) | IC50 [18]: 3.36 µM (active) | EC50 (cells [19]): > 29.9 µM (inactive)

CCc1nc2ccc(C(=O)Nc3cc(-c4ccccc4)ccc3OC)cn2c1N(C)Cc1nccs1
IC50 (H9c2): > 79 µM (inactive) | AC50 [20]: 21.6 µM (active) | AC50 [21]: 51.1 µM (active) | AC50 [22]: 9.18 µM (active) | IC50 [23]: > 69.5 µM (inactive) | AC50 [24]: 18.4 µM (active) | IC50 [25]: > 69.5 µM (inactive) | AC50 [26]: 18.1 µM (active)

Cc1ccc2c(CN(C)Cc3ccccc3)cc(=O)oc2c1
IC50 (cells [1]): > 67.6 µM (inactive) | IC50 [2]: > 67.6 µM (inactive)

COc1cccc(Nc2nc(C(C)N)cs2)n1 (stereo unspecified)
IC50 (cells [16]): > 29.9 µM (inactive) | EC50 [17]: 1.17 µM (active) | IC50 [18]: 4.76 µM (active) | EC50 (cells [19]): > 29.9 µM (inactive)

Cc1ccc(Cc2c(-c3ccco3)nc3ccc(Br)cn23)cc1
IC50 (Major prion protein): 8.5 µM (active) | IC50 (cells [6]): 56.8 µM (inactive)

CCc1ccccc1NC(=O)CNC(=O)CNC(=O)c1cccs1
AC50 [7]: 25.1 µM (active)

Nc1[nH]c(C(=O)c2ccc(Br)cc2)c(-c2ccc(Cl)cc2[N+](=O)[O-])c1C(=O)NCCc1c[nH]c2ccccc12
IC50 [23]: > 69.5 µM (inactive) | IC50 [25]: 9.24 µM (active)

N#Cc1c(Cl)nc(N/N=C/c2ccccc2)c(Cl)c1Cl
EC50 [27]: 12.1 µM (active) | EC50 [28]: 6.92 µM (active) | IC50 [29]: > 69.5 µM (inactive)

N=C(N/N=C\c1ccc(F)cc1)N/N=C\c1ccc(F)cc1
AC50 [30]: 5.38 µM (active) | IC50 (cells [16]): > 29.9 µM (inactive) | EC50 [17]: 1.75 µM (active) | IC50 [18]: 4.9 µM (active) | EC50 (cells [19]): 26.1 µM (inactive)

From ChEMBL document CHEMBL1201862, “PubChem BioAssay data set” (2004)
